27 molecules from patent publication US6215002A, “Pyrrolopyrrolone derivatives as inhibitors of neutrophil elastase” (priority 1996, dated 2001) can be followed below.

pIC50: −log10 of the molar value. Counter-ions that a name gives are not always drawn.

For the assay, the target named is T1, human neutrophil elastase (Homo sapiens, UniProt P08246).
T1 sequence (P08246 30-267): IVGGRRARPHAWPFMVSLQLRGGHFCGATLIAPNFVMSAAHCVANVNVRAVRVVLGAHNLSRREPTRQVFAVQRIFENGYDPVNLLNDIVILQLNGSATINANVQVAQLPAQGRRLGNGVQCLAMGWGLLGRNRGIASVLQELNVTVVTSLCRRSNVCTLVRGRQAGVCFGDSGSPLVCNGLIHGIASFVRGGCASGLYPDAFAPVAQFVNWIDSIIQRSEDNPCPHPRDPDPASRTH
Briefly: In vitro assay of human neutrophil elastase (HNE). It is filed as biochemical. Particulars: 118 nM purified human neutrophil elastase, pH 8.6, 15 min incubation at 30° C., MeO-succinyl-alanyl-alanyl-prolyl-valyl-p-nitroanilide substrate; read-out: HNE IC50. In outline: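 Residual activity was taken as the 10 min rate of absorbance rise at 405 nm after adding 0.6 mM MeO-succinyl-AAPV-p-nitroanilide. Curve fitting of activity against concentration gave IC50.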
What is called pIC50 is the IC50 on a negative log10 scale, so that one unit is a factor of ten. In the case of `CCC[C@H]1C(=O)N(S(C)(=O)=O)[C@H]2CCN(C(=O)CCCN(C)c3ccccc3)[C@H]12` (relative stereo) [Example 88, rel-(3R,3aR,6aS)-1-Methanesulfonyl-4-[4-(methyl-phenyl-amino)-butyryl]-3-propyl-hexahydro-pyrrolo[3,2-b]pyrrol-2-one hydrochloride], the pIC50 is 7.12. For the molecule `CCC[C@H]1C(=O)N(S(C)(=O)=O)[C@H]2CCN(C(=O)CCCN3CCCC3)[C@H]12` (relative stereo) [Example 89, rel-(3R,3aR,6aS)-1-Methanesulfonyl-3-propyl-4-(4-pyrrolidin-1-yl-butyryl)-hexahydro-pyrrolo[3,2-b]pyrrol-2-one hydrochloride], the pIC50 is 6.74.

As for `CCC[C@H]1C(=O)N(S(C)(=O)=O)[C@H]2CCN(C(=O)CCN(C)C)[C@H]12` (relative stereo) [Example 90, rel-(3R,3aR,6aS)-4-(3-Dimethylamino-propionyl)-1-methanesulfonyl-3-propyl-hexahydro-pyrrolo[3,2-b]pyrrol-2-one hydrochloride], the pIC50 was 6.52. As for `CCC[C@H]1C(=O)N(S(C)(=O)=O)[C@H]2CCN(C(=O)CCN(CC)CC)[C@H]12` (relative stereo) [Example 91, rel-(3R,3aR,6aS)-4-(3-Diethylamino-propionyl)-1-methanesulfonyl-3-propyl-hexahydro-pyrrolo-3,2-b]pyrrol-2-one hydrochloride], the pIC50 is 7.19. As for `CCC[C@H]1C(=O)N(S(C)(=O)=O)[C@H]2CCN(C(=O)CCN3C(C)CCCC3C)[C@H]12` (relative stereo) [Example 92, rel-(3R,3aR,6aS)-4-[3-(2,6-Dimethyl-piperidin-1-yl)-propionyl]-1-methanesulfonyl-3-propyl-hexahydro-pyrrolo[3,2-b]pyrrol-2-one hydrochloride], the negative logarithm of the IC50 (pIC50) is 7.15. The figure for `CCC[C@H]1C(=O)N(S(C)(=O)=O)[C@H]2CCN(C(=O)CCN3CCCC3)[C@H]12` (relative stereo) [Example 93, rel-(3R,3aR,6aS)-1-Methanesulfonyl-3-propyl-4-(3-pyrrolidin-1-yl-propionyl)-hexahydro-pyrrolo[3,2-b]pyrrol-2-one hydrochloride] is 7.05; for `CCC[C@H]1C(=O)N(S(C)(=O)=O)[C@H]2CCN(C(=O)CCN3CCN(C)CC3)[C@H]12` (relative stereo) [Example 94, rel-(3R,3aR,6aS)-1-Methanesulfonyl-4-[3-(4-methyl-piperazin-1-yl)-propionyl]-3-propyl-hexahydro-pyrrolo[3,2-b]pyrrol-2-one dihydrochloride] it is 7.09; for `CCC[C@H]1C(=O)N(S(C)(=O)=O)[C@H]2CCN(C(=O)CCC(N)=O)[C@H]12` (relative stereo) [Example 95, rel-4-(4-Methanesulfonyl-5-oxo-6R-propyl-hexahydro-(3aS,6aR)-pyrrolo[3,2-b]pyrrol-1-yl)-4-oxo-butyramide] it is 7.08.

On to `CCC[C@H]1C(=O)N(S(C)(=O)=O)[C@H]2CCN(C(=O)CCNC(C)=O)[C@H]12` (relative stereo) [Example 96, rel-N-[3-(4-Methanesulfonyl-5-oxo-6R-propyl-hexahydro-(3aS,6aR)-pyrrolo[3,2-b]pyrrol-1-yl)-3-oxo-propyl]-acetamide], for which the pIC50 is 6.87. As to `CCC[C@H]1C(=O)N(S(C)(=O)=O)[C@H]2CCN(C(=O)CCN3CCC3)[C@H]12` (relative stereo) [Example 97, rel-(3R,3aR,6aS)-4-(3-Azetidin-1-yl-propionyl)-1-methanesulfonyl-3-propyl-hexahydro-pyrrolo[3,2-b]pyrrol-2-one hydrochloride], the pIC50 is 6.69. `CCC[C@H]1C(=O)N(S(C)(=O)=O)[C@H]2CCN(C(=O)CCN3CCC(C(N)=O)CC3)[C@H]12` (relative stereo) [Example 98, rel-(3R,3aR,6aS)-1-[3-(4-Methanesulfonyl-5-oxo-6-propyl-hexahydro-pyrrolo[3,2-b]pyrrol-1-yl)-3-oxo-propyl]-piperidine-4-carboxylic acid amide hydrochloride]: the pIC50 is 6.80.

As for `CCC[C@H]1C(=O)N(S(C)(=O)=O)[C@H]2CCN(C(=O)CCN3CCCCCC3)[C@H]12` (relative stereo) [Example 99, hydrochloride], the pIC50 was 7.10. In the case of `CCC[C@H]1C(=O)N(S(C)(=O)=O)[C@H]2CCN(C(=O)CN3CCCCC3)[C@H]12` (relative stereo) [Example 100, rel-(3R,3aR,6aS)-1-Methanesulfonyl-4-(piperidin-1-yl-acetyl)-3-propyl-hexahydro-pyrrol[3,2-b]pyrrol-2-one hydrochloride], the pIC50 is 6.19. `CCC[C@H]1C(=O)N(S(C)(=O)=O)[C@H]2CCN(C(=O)CN(CC)CC)[C@H]12` (relative stereo) [Example 101, rel-(3R,3aR,6aS)-4-Diethylaminoacetyl-1-methanesulfonyl-3-propyl-hexahydro-pyrrolo[3,2-b]pyrrol-2-one hydrochloride]: the pIC50 was 6.77. The figure for `CCC[C@H]1C(=O)N(S(C)(=O)=O)[C@H]2CCN(C(=O)CN(C)C)[C@H]12` (relative stereo) [Example 102, rel-(3R,3aR,6aS)-4-Dimethylaminoacetyl-1-methanesulfonyl-3-propyl-hexahydro-pyrrolo[3,2-b]pyrrol-2-one hydrochloride] is 7.04; for `CCC[C@H]1C(=O)N(S(C)(=O)=O)[C@H]2CCN(C(=O)CN(C)c3ccccc3)[C@H]12` (relative stereo) [Example 103, rel-(3R,3aR,6aS)-1-Methanesulfonyl-4-[(methyl-phenyl-amino)-acetyl]-3-propyl-hexahydro-pyrrolo[3,2-b]pyrrol-2-one hydrochloride] it is 6.98. Turning to `CCC[C@H]1C(=O)N(S(C)(=O)=O)[C@H]2CCN(C(=O)CN3CCCCCC3)[C@H]12` (relative stereo) [Example 104, rel-(3R,3aR,6aS)-4-Azepin-1-yl-acetyl)-1-methanesulfonyl-3-propyl-hexahydro-pyrrolo[3,2-b]pyrrol-2-one hydrochloride], the pIC50 is 6.24. As for `CCC[C@H]1C(=O)N(S(C)(=O)=O)[C@H]2CCN(C(=O)CN3CCN(C)CC3)[C@H]12` (relative stereo) [Example 105, rel-(3R,3aR,6aS)-1-Methanesulfonyl-4-[(4-methyl-piperazin-1-yl)-acetyl]-3-propyl-hexahydro-pyrrolo[3,2-b]pyrrol-2-one hydrochloride], the pIC50 was 6.71. As to `CCC[C@H]1C(=O)N(S(C)(=O)=O)[C@H]2CCN(C(=O)CN3CCOCC3)[C@H]12` (relative stereo) [Example 107, rel-(3R,3aR,6aS)-1-Methanesulfonyl-4-morpholin-4-yl-acetyl)-3-propyl-hexahydro-pyrrolo[3,2-b]pyrrol-2-one hydrochloride], the negative logarithm of the IC50 (pIC50) was 6.84. On to `CCC[C@H]1C(=O)N(S(C)(=O)=O)[C@H]2CCN(C(=O)CN3CCCC3)[C@H]12` (relative stereo) [Example 108, hydrochloride], for which the pIC50 was 6.32. As to `CCC[C@H]1C(=O)N(S(C)(=O)=O)[C@H]2CCN(C(=O)CN)[C@H]12` (relative stereo) [Example 109, rel-(3R,3aR,6aS)-4-Aminoacetyl-1-methanesulfonyl-3-propyl-hexahydro-pyrrolo[3,2-b]pyrrol-2-one trifluoroacetate], the pIC50 is 7.02. The figure for `CCC[C@H]1C(=O)N(S(C)(=O)=O)[C@H]2CCN(C(=O)CNC)[C@H]12` (relative stereo) [Example 110, rel-(3R,3aR,6aS)-1-Methanesulfonyl-4-methylaminoacetyl-3-propyl-hexahydro-pyrrolo[3,2-b]pyrrol-2-one trifluoroacetate] is 6.87; for `CCC[C@H]1C(=O)N(S(C)(=O)=O)[C@H]2CCN(C(=O)C3CCCN3C)[C@H]12` (relative stereo) [Example 111, rel-(3R,3aR,6aS)-1-Methanesulfonyl-4-(1-methyl-pyrrolidine-2-carbonyl)-3-propyl-hexahydro-pyrrolo[3,2-b]pyrrol-2-one] it is 6.24; for `CCC[C@H]1C(=O)N(S(C)(=O)=O)[C@H]2CCN(C(=O)Cn3ccccc3=O)[C@H]12` (relative stereo) [Example 112, rel-(3R,3aR,6aS)-1-Methanesulfonyl-4-[(2-oxo-2H-pyridin-1-yl)-acetyl]-3-propyl-hexahydro-pyrrolo[3,2-b]pyrrol-2-one] it is 6.65. For `CCC[C@H]1C(=O)N(S(C)(=O)=O)[C@H]2CCN(C(=O)Cn3ccc(=O)cc3)[C@H]12` (relative stereo) [Example 113, rel-(3R,3aR,6aS)-1-Methanesulfonyl-4-[(4-oxo-4H-pyridin-1-yl)-acetyl]-3-propyl-hexahydro-pyrrolo[3,2-b]pyrrol-2-one] the value was 6.52. As for `CCC[C@H]1C(=O)N(S(C)(=O)=O)[C@H]2CCN(C(=O)CNC(C)=O)[C@H]12` (relative stereo) [Example 114, rel-N-[2-(4-Methanesulfonyl-5-oxo-6R-propyl-hexahydro-(3aS,6aR)-pyrrolo[3,2-b]pyrrol-1-yl)-2-oxo-ethyl]-acetamide], the pIC50 was 7.38. Consider `CCC[C@H]1C(=O)N(S(C)(=O)=O)[C@H]2CCN(S(=O)(=O)c3ccc(C(=O)N4CCCCC4)cc3)[C@H]12` (relative stereo) [Example 119, rel-(3R,3aR,6aS)-1-Methanesulfonyl-4-[4-(piperidine-1-carbonyl)-benzenesulfonyl]-3-propyl-hexahydro-pyrrolo[3,2-b]pyrrol-2-one], for which the pIC50 is 7.47.
